Experimental data published in the supplement of paper PMC10784567.
± gives the standard deviation of the averaged measurements.

Compound: C=C1C[C@H]2C=Nc3cc(OCCCCCOc4cc5c(cc4OC)C(=O)N4CC(=C)C[C@H]4C=N5)c(OC)cc3C(=O)N2C1 [SG2057]
Test: absolute IC50 (cell viability, CellTiter-Glo); higher = less potent
Conditions: treatment time: 3 days
Description: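 Large cancer cell line panel screens in 384-well plates. Cells were treated for 3 days with a 9-point dose titration of the free PBD dimer SG2057; viability was read with CellTiter-Glo. Absolute IC50 came from a four-parameter Hill fit normalised to the median of vehicle (DMSO) wells. Several independent screens (projects) per cell line are averaged; values in µM, lowest-dose floor about 1.524e-5 µM.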

| Test System | absolute IC50 |
| --- | --- |
| Hep 3B2.1-7 | 3830 ± 2600 pM |
| Hep G2 | 2200 pM |
| Hepa 1-6 | 286 pM |
| Hs 38.T | 1360 ± 1700 pM |
| Hs 294T | 469 ± 750 pM |
| Hs 578T | 1510 ± 1300 pM |
| Hs 683 | 626 ± 1000 pM |
| Hs 695T | 547 ± 210 pM |
| Hs 746T | 1810 ± 3400 pM |
| Hs 839.T | 6790 pM |
| Hs 852.T | 582 ± 63 pM |
| Hs 895.T | 7530 pM |
| HuCCT1 | 2630 ± 2500 pM |
| ID8 | 292 pM |
| IGR-1 | 750 ± 910 pM |
| IGR-37 | 339 ± 470 pM |
| IGR-39 | 98.1 ± 20 pM |
| IGROV-1 | 1140 ± 1600 pM |
| IM-95 | 2410 pM |
| IM-95m | 3430 pM |
| Ishikawa | 311 pM |
| JC | 463 pM |
| JHH-1 | 2070 ± 3100 pM |
| JHH-2 | 4840 ± 8100 pM |
| JHH-4 | 555 ± 540 pM |

| Test System | absolute IC50 |
| --- | --- |
| JHH-5 | 248 pM |
| JHH-6 | 3400 pM |
| JHH-7 | 1940 pM |
| JJ012 | 6350 pM |
| JJ012 (DODx) | 1420 pM |
| JJN-3 | 816 ± 1700 pM |
| JVM-2 | 374 ± 480 pM |
| K-562 | 617 ± 680 pM |
| KALS-1 | 336 pM |
| KARPAS-299 | 581 ± 1100 pM |
| KARPAS-620 | 2960 pM |
| KARPAS-1106P | 158 ± 45 pM |
| KATO III | 5090 pM |
| KCI-MOH1 | 3230 ± 2000 pM |
| KE-97 | 193 ± 110 pM |
| KELLY | 120 pM |
| KG-1 | 1220 ± 910 pM |
| KHM-1B | 335 ± 240 pM |
| KHM-5M | 561 pM |
| KINGS-1 | 2750 pM |
| KLE | 12100 ± 8900 pM |
| KLM-1 | 1000 ± 960 pM |
| KLN 205 | 2120 pM |
| KM-12 | 3650 pM |
| KMM-1 | 515 ± 79 pM |

| Test System | absolute IC50 |
| --- | --- |
| KMRC-1 | 1260 pM |
| KMRC-20 | 3450 pM |
| KMS-11 | 761 ± 190 pM |
| KMS-12-PE | 433 pM |
| KMS-21BM | 260 ± 51 pM |
| KMS-26 | 82.3 ± 24 pM |
| KMS-27 | 164 ± 2.7 pM |
| KMS-28PE | 64.7 ± 36 pM |
| KMS-34 | 272 ± 270 pM |
| KNS-62 | 1400 ± 2500 pM |
| KNS-81 | 189 pM |
| KP4 | 251 ± 140 pM |
| KP-2 | 4150 pM |
| KP-3 | 2410 ± 1700 pM |
| KP-3L | 2690 ± 260 pM |
| KP-N-SI9s | 55.1 pM |
| KP-N-YN | 15.9 pM |
| KPL-1 | 2480 ± 1500 pM |
| KPP14388 | 960 pM |
| KPP14388 LN | 490 pM |
| KPP14449 | 1530 pM |
| KPP-1 (KPP-PDAC) XENOGRAFT | 168 pM |
| KPR3070 | 1350 pM |
| KPR3351 | 931 pM |
| KR7110 | 1360 pM |

| Test System | absolute IC50 |
| --- | --- |
| KR7251 | 557 pM |
| KR7414 | 1450 pM |
| KURAMOCHI | 4220 pM |
| KYSE-30 | 368 pM |
| KYSE-140 | 496 pM |
| KYSE-150 | 194 pM |
| KYSE-180 | 667 pM |
| KYSE-270 | 409 pM |
| KYSE-410 | 579 pM |
| KYSE-450 | 564 pM |
| KYSE-510 | 68.6 pM |
| KYSE-520 | 1010 pM |
| Kasumi-1 | 4110 pM |
| L-363 | 384 ± 540 pM |
| LA-4 | 1590 pM |
| LCLC-97TM1 | 1400 pM |
| LCLC-103H | 1110 ± 1200 pM |
| LL/2 | 449 pM |
| LN-18 | 2200 ± 1400 pM |
| LN-229 | 2600 ± 1400 pM |
| LNCAP clone FGC | 365 ± 130 pM |
| LNCaP/Ner | 71.7 pM |
| LS1034 | 5720 pM |
| LTPA | 1460 pM |
| LUDLU-1 | 9430 pM |

| Test System | absolute IC50 |
| --- | --- |
| LXFL529 | 2720 pM |
| Li-7 | 4510 pM |
| LoVo | 1520 ± 430 pM |
| MAVER-1 | 95.5 ± 65 pM |
| MC-38 | 186 pM |
| MC-38 Ovalbumin | 208 pM |
| MC-IXC | 16.3 pM |
| MCAS | 420 ± 580 pM |
| MCF 10A | 3780 ± 2700 pM |
| MCF 10A AKT2 -/- (Sigma) | 2140 pM |
| MCF 10A CDH1 -/- (Sigma) | 2530 pM |
| MCF 10A PTEN -/- (Sigma) | 2540 pM |
| MCF-7 | 2500 ± 1700 pM |
| MDA-MB-157 | 1860 ± 1700 pM |
| MDA-MB-361 | 1960 ± 2500 pM |
| MDA-MB-435 | 1760 ± 2400 pM |
| MDA-MB-436 | 326 ± 200 pM |
| MDA-MB-453 | 3210 ± 2300 pM |
| MDA-MB-468 | 353 ± 360 pM |
| ME-180 | 155 pM |
| MEL-JUSO | 875 ± 1000 pM |
| MES-SA | 135 ± 140 pM |
| MFM-223 | 743 ± 140 pM |
| MG-63 | 284 pM |
| MHH-ES-1 | 159 pM |

| Test System | absolute IC50 |
| --- | --- |
| MKN-1 | 867 ± 1100 pM |
| MKN-7 | 1670 pM |
| MKN-45 | 1080 ± 440 pM |
| MKN-74 | 2170 pM |
| ML-2 | 57.2 ± 13 pM |
| MM.1S | 474 ± 490 pM |
| MMAc | 868 pM |
| MOLM-16 | 270 ± 290 pM |
| MOLP-8 | 212 ± 14 pM |
| MOR | 8900 pM |
| MPC-11 | 229 pM |
| MR1-3 | 256 pM |
| MS751 | 683 pM |
| MT-3 | 947 ± 640 pM |
| MX-1 | 2510 ± 2000 pM |
| MeWo | 1080 ± 370 pM |
| NAMALWA | 64.3 ± 31 pM |
| NB69 | 612 pM |
| NB(TU)1-10 | 604 pM |
| NB-1 | < 15.2 pM |
| NB-4 | 290 pM |
| NCI-H28 | 890 pM |
| NCI-H146 | 508 pM |
| NCI-H187 | 100 pM |
| NCI-H196 | 2690 pM |

| Test System | absolute IC50 |
| --- | --- |
| NCI-H226 | 1270 ± 2500 pM |
| NCI-H322T | 912 pM |
| NCI-H358 | 959 ± 560 pM |
| NCI-H441 | 535 pM |
| NCI-H446 | 244 pM |
| NCI-H460 | 242 ± 200 pM |
| NCI-H520 | 4030 ± 2500 pM |
| NCI-H522 | 544 pM |
| NCI-H650 | 2970 ± 3300 pM |
| NCI-H661 | 1780 ± 3400 pM |
| NCI-H716 | 6900 ± 3700 pM |
| NCI-H727 | 6750 pM |
| NCI-H810 | 1420 pM |
| NCI-H820 | 1480 pM |
| NCI-H838 | 1340 pM |
| NCI-H889 | 1320 pM |
| NCI-H920 | 9130 pM |
| NCI-H1155 | 221 ± 200 pM |
| NCI-H1339 | 155 pM |
| NCI-H1355 | 2880 ± 3000 pM |
| NCI-H1395 | 1660 pM |
| NCI-H1437 | 2050 ± 2000 pM |
| NCI-H1563 | 3610 pM |
| NCI-H1581 | 852 ± 720 pM |
| NCI-H1648 | 8580 pM |

| Test System | absolute IC50 |
| --- | --- |
| NCI-H1650 | 2520 pM |
| NCI-H1651 | 443 pM |
| NCI-H1666 | 888 ± 430 pM |
| NCI-H1703 | 360 ± 390 pM |
| NCI-H1734 | 236 pM |
| NCI-H1770 | 7470 pM |
| NCI-H1792 | 2240 pM |
| NCI-H1838 | 2320 ± 2800 pM |
| NCI-H1869 | 2350 pM |
| NCI-H1915 | 2400 pM |
| NCI-H1930 | 34.6 pM |
| NCI-H1944 | 1060 ± 290 pM |
| NCI-H1975 | 2000 pM |
| NCI-H1975 (MB) | 206 pM |
| NCI-H1993 | 564 pM |
| NCI-H2009 | 1100 ± 980 pM |
| NCI-H2023 | 142 ± 270 pM |
| NCI-H2052 | 717 pM |
| NCI-H2073 | 28900 pM |
| NCI-H2106 | 1360 ± 710 pM |
| NCI-H2110 | 296 ± 180 pM |
| NCI-H2122 | 2980 ± 1300 pM |
| NCI-H2126 | 3940 pM |
| NCI-H2135 | 5600 pM |
| NCI-H2170 | 646 ± 11 pM |

| Test System | absolute IC50 |
| --- | --- |
| NCI-H2171 | 742 ± 1300 pM |
| NCI-H2228 | 279 pM |
| NCI-H2347 | 1140 ± 2700 pM |
| NCI-H2373 | 217 ± 180 pM |
| NCI-H2405 | 552 ± 380 pM |
| NCI-H2444 | 5490 pM |
| NCI-H2452 | 2950 ± 3000 pM |
| NCI-H2461 | 545 ± 890 pM |
| NCI-H2595 | 2200 ± 1900 pM |
| NCI-H2722 | 343 pM |
| NCI-H2731 | 1290 ± 1900 pM |
| NCI-H2803 | 3860 pM |
| NCI-H2804 | 718 ± 980 pM |
| NCI-N87 | 403 ± 110 pM |
| NCI-N417 | 737 pM |
| NJG | 151 pM |
| NTERA-2 | < 15.2 pM |
| NUGC-4 | 443 pM |
| OAW28 | 5250 pM |
| OAW42 | 1380 ± 1600 pM |
| OCI-AML5 | 72.9 ± 110 pM |
| OCI-LY-10 | < 15.2 pM |
| OCI-M1 | 227 ± 130 pM |
| OCI-M2 | 275 ± 7.9 pM |
| OCUM-1 | 529 ± 320 pM |

| Test System | absolute IC50 |
| --- | --- |
| OE19 | 2230 pM |
| OE21 | 258 pM |
| OE33 | 61.2 pM |
| ONCO-DG-1 | 1360 ± 2200 pM |
| ONS-76 | 487 pM |
| OPM-2 | 1630 ± 1200 pM |
| OUMS-23 | 1710 ± 890 pM |
| OV56 | 195 ± 300 pM |
| OV-90 | 2130 ± 1300 pM |
| OVCA 420 | 2240 ± 2300 pM |
| OVCAR433 | 462 ± 470 pM |
| OVCAR-4 | 1330 ± 490 pM |
| OVCAR-5 | 1080 ± 300 pM |
| OVTOKO | 557 ± 550 pM |
| OvCA 429 | 139 ± 67 pM |
| OvCA 432 | 1080 ± 640 pM |
| PA-1 | 47.3 ± 56 pM |
| PA-TU-8988S | 52100 pM |
